Source: PubChem BioAssay AID248 (DTP/NCI, 2004)
Several values for one entry are separate records, joined by “and”; a condition that tells them apart may be missing. Equal values may be shown once. Toxic doses and inconclusive results are not listed. Rule as the data show it: active = T/C of 150% or more; inactive = T/C below 125%. Peptide text beside a SMILES is read from it. * marks the point of attachment. Cbz = O=C(OCc1ccccc1)*

Tested on: L1210 leukemia ip in BDF1 mice, survival T/C
Assay: NCI In Vivo Anticancer Drug Screen. Data for tumor model L1210 Leukemia (intraperitoneal) in B6D2F1 (BDF1) mice
Conditions: endpoint: mean survival time, higher = longer survival
Outline: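 In this screen, tumor-bearing mice given compound are compared to those given vehicle, and their survival values are reported as a treated-to-control quotient.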

[1] = dose: 100.0 mg/kg/injection, schedule: Q01DX001 (ip), vehicle: saline
[2] = dose: 200.0 mg/kg/injection, schedule: Q01DX001 (ip), vehicle: saline
[3] = dose: 100.0 mg/kg/injection, schedule: Q04DX002 (ip), vehicle: Klucel (hydroxypropylcellulose) (HPC)
[4] = dose: 50.0 mg/kg/injection, schedule: Q01DX009 (ip), vehicle: Klucel (hydroxypropylcellulose) (HPC)
[5] = dose: 100.0 mg/kg/injection, schedule: Q01DX009 (ip), vehicle: Klucel (hydroxypropylcellulose) (HPC)
[6] = dose: 100.0 mg/kg/injection, schedule: Q04DX003 (ip), vehicle: Klucel (hydroxypropylcellulose) (HPC)
[7] = dose: 200.0 mg/kg/injection, schedule: Q01DX009 (ip), vehicle: Klucel (hydroxypropylcellulose) (HPC)
[8] = dose: 200.0 mg/kg/injection, schedule: Q04DX003 (ip), vehicle: Klucel (hydroxypropylcellulose) (HPC)
[9] = dose: 400.0 mg/kg/injection, schedule: Q01DX009 (ip), vehicle: Klucel (hydroxypropylcellulose) (HPC)
[10] = dose: 400.0 mg/kg/injection, schedule: Q04DX003 (ip), vehicle: Klucel (hydroxypropylcellulose) (HPC)
[11] = dose: 100.0 mg/kg/injection, schedule: Q01DX009 (ip), vehicle: saline with Tween-80
[12] = dose: 100.0 mg/kg/injection, schedule: Q04DX002 (ip), vehicle: saline with Tween-80
[13] = dose: 200.0 mg/kg/injection, schedule: Q04DX002 (ip), vehicle: saline with Tween-80
[14] = dose: 400.0 mg/kg/injection, schedule: Q01DX009 (ip), vehicle: saline with Tween-80
[15] = dose: 400.0 mg/kg/injection, schedule: Q04DX002 (ip), vehicle: saline with Tween-80
[16] = dose: 25.0 mg/kg/injection, schedule: Q04DX003 (ip), vehicle: Klucel (hydroxypropylcellulose) (HPC)
[17] = dose: 50.0 mg/kg/injection, schedule: Q04DX003 (ip), vehicle: Klucel (hydroxypropylcellulose) (HPC)
[18] = dose: 400.0 mg/kg/injection, schedule: Q01DX001 (ip), vehicle: saline
[19] = dose: 50.0 mg/kg/injection, schedule: Q01DX009 (ip), vehicle: saline with Tween-80
[20] = dose: 100.0 mg/kg/injection, schedule: Q04DX003 (ip), vehicle: saline with Tween-80
[21] = dose: 200.0 mg/kg/injection, schedule: Q04DX003 (ip), vehicle: saline with Tween-80
[22] = dose: 400.0 mg/kg/injection, schedule: Q04DX003 (ip), vehicle: saline with Tween-80

Measured: T/C

CC1(C)N=C(N)N=C(N)N1c1cccc(OCCCOc2ccc(NC(=O)CBr)cc2)c1
inactive: dose: 45.0 mg/kg/injection, schedule: Q01DX009 (ip), vehicle: saline 104 % of control | dose: 67.0 mg/kg/injection, schedule: Q01DX009 (ip), vehicle: saline 104 % of control | [1] 110 % of control | dose: 100.0 mg/kg/injection, schedule: Q01DX009 (ip), vehicle: saline 102 % of control | [2] 97 % of control

Nc1ccc(CC(=O)O)c(N)c1
inactive: [3] 87 % of control | dose: 200.0 mg/kg/injection, schedule: Q04DX002 (ip), vehicle: Klucel (hydroxypropylcellulose) (HPC) 97 % of control | dose: 400.0 mg/kg/injection, schedule: Q04DX002 (ip), vehicle: Klucel (hydroxypropylcellulose) (HPC) 97 % of control

O=S1(=O)C=C(Cl)C2C3C=CC(C3)C21 (stereo not drawn)
inactive: dose: 0.62 mg/kg/injection, schedule: Q01DX009 (ip), vehicle: acetone 101 % of control | dose: 1.25 mg/kg/injection, schedule: Q01DX009 (ip), vehicle: acetone 104 % of control | dose: 2.5 mg/kg/injection, schedule: Q04DX003 (ip), vehicle: acetone 90 % of control | dose: 5.0 mg/kg/injection, schedule: Q04DX003 (ip), vehicle: acetone 92 % of control | dose: 10.0 mg/kg/injection, schedule: Q01DX001 (ip), vehicle: acetone 97 % of control

CC1=CC(C)(C)NC(=S)N1c1ccc(N(C)C)cc1
inactive: dose: 112.0 mg/kg/injection, schedule: Q01DX Z (ip), vehicle: methylcellulose (MC) 101 % of control | dose: 166.0 mg/kg/injection, schedule: Q01DX Z (ip), vehicle: methylcellulose (MC) 96 % of control | dose: 250.0 mg/kg/injection, schedule: Q01DX Z (ip), vehicle: methylcellulose (MC) 94 % of control | dose: 375.0 mg/kg/injection, schedule: Q01DX Z (ip), vehicle: methylcellulose (MC) 96 % of control

Cc1ccc(C2NC(=O)c3ccccc3N2)c(C)c1 (stereo not drawn)
inactive: [4] 100 % of control | [5] 94 % of control and 99 % of control | [6] 103 % of control | dose: 150.0 mg/kg/injection, schedule: Q01DX009 (ip), vehicle: Klucel (hydroxypropylcellulose) (HPC) 93 % of control | [7] 106 % of control | [8] 95 % of control | [9] 96 % of control | [10] 95 % of control

CCOC(=O)c1c(O)c(=O)[nH]c2ccccc12
inactive: [11] 97 % of control | [12] 101 % of control | dose: 200.0 mg/kg/injection, schedule: Q01DX009 (ip), vehicle: saline with Tween-80 108 % of control | [13] 118 % of control | [14] 101 % of control | [15] 97 % of control

O=S(c1ccccc1)C1CCCCC1O (stereo not drawn)
inactive: [12] 108 % of control | [13] 118 % of control

O=[N+]([O-])c1cc([N+](=O)[O-])c(Nn2c3ccccc3c3ccccc32)c([N+](=O)[O-])c1
inactive: dose: 6.25 mg/kg/injection, schedule: Q01DX009 (ip), vehicle: Klucel (hydroxypropylcellulose) (HPC) 103 % of control | dose: 12.5 mg/kg/injection, schedule: Q01DX009 (ip), vehicle: Klucel (hydroxypropylcellulose) (HPC) 104 % of control and 87 % of control | dose: 25.0 mg/kg/injection, schedule: Q01DX009 (ip), vehicle: Klucel (hydroxypropylcellulose) (HPC) 100 % of control and 102 % of control | [16] 107 % of control | [4] 96 % of control | [17] 95 % of control | [5] 94 % of control | [6] 92 % of control and 96 % of control | [8] 94 % of control and 87 % of control | [10] 102 % of control

Cc1no[n+]([O-])c1C(=O)N(C)C
inactive: dose: 25.0 mg/kg/injection, schedule: Q04DX002 (ip), vehicle: Klucel (hydroxypropylcellulose) (HPC) 95 % of control | dose: 50.0 mg/kg/injection, schedule: Q04DX002 (ip), vehicle: Klucel (hydroxypropylcellulose) (HPC) 95 % of control | [3] 95 % of control

O=C(O)c1c[nH]c2c(Cl)cc(Cl)cc2c1=O
inactive: [2] 94 % of control | [18] 87 % of control

CCC(CC)(COC(N)=O)COC(N)=O
inactive: [16] 98 % of control | [17] 93 % of control | [6] 98 % of control | [8] 95 % of control | [10] 93 % of control

Nc1c(Cl)cc(S(=O)(=O)O)cc1Br
inactive: dose: 50.0 mg/kg/injection, schedule: Q01DX001 (ip), vehicle: saline 101 % of control | [1] 103 % of control | [2] 101 % of control | [18] 101 % of control

CCOC(=O)CNC(=O)C(CC(C)C)NC(=O)C1CCCN1C(=O)OCc1ccccc1 (stereo not drawn) (Cbz-Pro-Leu-Gly-OEt; configuration not given here)
inactive: [5] 105 % of control | [6] 107 % of control | [7] 89 % of control | [8] 93 % of control | [9] 110 % of control | [10] 98 % of control

CONC(=O)NC(=O)C1(c2ccccc2)CCCCC1
inactive: dose: 25.0 mg/kg/injection, schedule: Q01DX Z (ip), vehicle: carboxymethylcellulose (CMC) 96 % of control | dose: 50.0 mg/kg/injection, schedule: Q01DX Z (ip), vehicle: carboxymethylcellulose (CMC) 95 % of control | [1] 86 % of control | dose: 100.0 mg/kg/injection, schedule: Q01DX Z (ip), vehicle: carboxymethylcellulose (CMC) 95 % of control | [2] 100 % of control | dose: 200.0 mg/kg/injection, schedule: Q01DX Z (ip), vehicle: carboxymethylcellulose (CMC) 102 % of control | dose: 200.0 mg/kg/injection, schedule: Q01DX Z (ip), vehicle: methylcellulose (MC) 119 % of control | [18] 102 % of control | dose: 400.0 mg/kg/injection, schedule: Q01DX Z (ip), vehicle: carboxymethylcellulose (CMC) 96 % of control | dose: 400.0 mg/kg/injection, schedule: Q01DX Z (ip), vehicle: methylcellulose (MC) 112 % of control

C(#CP(c1ccccc1)c1ccccc1)c1ccccc1
inactive: [6] 93 % of control | [8] 97 % of control | [10] 95 % of control

COc1cc(C=Nc2ccc(Cl)cc2)ccc1N(CCCl)CCCl
inactive: dose: 21.0 mg/kg/injection, schedule: Q01DX015 (ip), vehicle: carboxymethylcellulose (CMC) 110 % of control | dose: 36.0 mg/kg/injection, schedule: Q01DX015 (ip), vehicle: carboxymethylcellulose (CMC) 95 % of control | dose: 50.0 mg/kg/injection, schedule: Q01DX001 (ip), vehicle: carboxymethylcellulose (CMC) 120 % of control | dose: 100.0 mg/kg/injection, schedule: Q01DX001 (ip), vehicle: carboxymethylcellulose (CMC) 108 % of control | dose: 133.0 mg/kg/injection, schedule: Q01DX001 (ip), vehicle: carboxymethylcellulose (CMC) 107 % of control | dose: 200.0 mg/kg/injection, schedule: Q01DX001 (ip), vehicle: carboxymethylcellulose (CMC) 117 % of control

O=C(/C=C/c1ccccc1)NC(=S)Nc1ccc(CCO)cc1
inactive: [19] 97 % of control and 111 % of control | dose: 100.0 mg/kg/injection, schedule: Q01DX001 (ip), vehicle: saline with Tween-80 100 % of control | [12] 96 % of control and 97 % of control | [20] 102 % of control | dose: 200.0 mg/kg/injection, schedule: Q01DX001 (ip), vehicle: saline with Tween-80 88 % of control | [13] 96 % of control and 101 % of control | [21] 100 % of control | dose: 400.0 mg/kg/injection, schedule: Q01DX001 (ip), vehicle: saline with Tween-80 90 % of control | [14] 93 % of control and 95 % of control | [15] 104 % of control | [22] 87 % of control

CN1C(=S)SC(c2ccccc2)N(C)C1c1ccccc1 (stereo not drawn)
inactive: [4] 101 % of control | [5] 98 % of control | [6] 89 % of control | [7] 106 % of control | [8] 89 % of control | [10] 86 % of control

Nc1nc(NCCCc2ccccc2)c(N)c(=O)[nH]1
inactive: dose: 25.0 mg/kg/injection, schedule: Q01DX009 (ip), vehicle: saline with Tween-80 94 % of control | [19] 92 % of control | [11] 92 % of control and 97 % of control

CC(=O)OCc1ccnc2ccc(OC(C)=O)cc12
inactive: [1] 100 % of control | [2] 98 % of control | [18] 96 % of control

Nc1ccc(C(=O)Oc2ccc([N+](=O)[O-])cc2)cc1
inactive: [20] 98 % of control | [21] 88 % of control | [22] 86 % of control
